Test results from the NIST ThermoML archive (doi:10.1016/j.jct.2018.03.025).
± gives the expanded uncertainty stated by the source.

What was measured:
[1] = refractive index (Na D-line) (dimensionless); conditions: 298.2 K; 101.33 kPa; Liquid; Standard Abbe refractometry
[2] = 298.2 K; 101.33 kPa; Liquid; Vibrating tube method
[3] = refractive index (Na D-line) (dimensionless); wn = mass fraction of the nth substance listed; conditions: 298.2 K; 101.3 kPa; Liquid; Standard Abbe refractometry; w1 = 0.85
[4] = wn = mass fraction of the nth substance listed; conditions: 298.2 K; 101.3 kPa; Liquid; Vibrating tube method; w1 = 0.85

SMILES	refractive index [1]	mass density [2]	refractive index [3]	mass density [4]
CCCCCOC(C)=O [pentyl ethanoate]	1.3991 ± 0.0011	872.02 ± 1.2 kg/m3		
O=P(O)(O)O [phosphoric acid] + O			1.432 ± 0.001	1682.7 ± 1.1 kg/m3
CCCOC(C)=O [propyl ethanoate]	1.383 ± 0.0011	882.26 ± 1.2 kg/m3		
O [water]	1.3325 ± 0.001			
